Laboratory results reported in patent publication US9567319B2, “Compound having higher inhibitory activity on protein kinase G and preparation method thereof” (Jenkem Technology Co., Ltd., (Tianjin), priority 2014, dated 2017).
Where “and” joins values, the source holds several entries; their conditions need not be identical. Equal entries are not always repeated.

Key:
[1] = Test of water solubility of the compounds
Description: At room temperature, about 0.1 g of each sample to be tested (solid materials should be ground as powder) was added to a 10 mL cylinder with a ground glass stopper. Water was gradually added. After each addition of 0.5 mL water, the resulting solution was stirred for 10 min for mixing, and was then visually examined for the presence of any undissolved sample. If there still exists undissolved sample or undissolved portions of the sample after 10 mL water was added, the test would be continued in a 100 mL cylinder.

[2] = tested on: hyperalgesia induced by Freund's complete adjuvant (CFA) in rats; assay: Weight bearing test, CFA induced hyperalgesia in rats; format: in vivo, SD rats; details: for Weight Bearing Test Values (Mean ± SD), Baseline: pretreatment, n=8; for Weight Bearing Test Values (Mean ± SD), 15 min: 15 min post treatment; for Weight Bearing Test Values (Mean ± SD), 2 h: 2 h post treatment
Description: Compounds 46 and JK-02A were prepared according to the disclosure of US patent application No. US2008/0176920, and compound JK-02H was prepared according to Example 1. A repeat efficacy study was carried out on the same batch of animals with a single-dose treatment followed by a washing-out period. The 14 days in life studies included two stages: a single low dose treatment assessment on the 7th day and then a single high dose treatment test on the 14th day after CFA injection. On the 7th day after CFA injection, the rats were randomly assigned to respective groups using a computer generated randomization procedure based on the body weight and the baseline values of Von Frey and weight bearing test. Animals received corresponding single dose treatments (vehicle and 3 test articles) on the 7th and 14th days after CFA injection, respectively, and the effect of the test compounds were evaluated. Hyperalgesia of all the study animals was assessed following a single low dose treatment with the test articles on day 7, while a single high dose effect of the test article was evaluated on day 14. The mechanical hyperalgesia and weight bearing were measured on day 7 and day 14 after CFA injection, followed by administration of control or test articles. Von Frey filaments and weight bearing were measured on all the study animals at three time points on day 7, and four time points on day 14. An extra time point assessment was conducted on day 14, considering the strong analgesic effect of the test articles at a higher dose noticed during the test at the 3th time point. Rats distributed body weight unequally on the CFA-injected and contra lateral paws, which was measured by a weight balance changing instrument (Bio-medical, USA). The animals were tested in a box constructed to register the weight load exerted by the hind paws by means of force plates inserted in the floor. The mean weight bearing (unit in “g”) between the CFA-injected paw and the contra-lateral paw was determined in 10 seconds. The weight bearing test of all study animals was conducted at the same time intervals as the mechanical hyperalgesia test. All the results were expressed as mean±SD. One-way analysis of variance (ANOVA) followed by a multiple comparison test were applied among the groups, p<0.05 accepted as significant.

[3] = tested on: hyperalgesia induced by Freund's complete adjuvant (CFA) in rats; assay: Von Frey filament test, CFA induced hyperalgesia in rats; format: in vivo, SD rats; details: for Von Frey Filament Test Values (Mean ± SD), Baseline: pretreatment, n=8; for Von Frey Filament Test Values (Mean ± SD), 15 min: 15 min post treatment; for Von Frey Filament Test Values (Mean ± SD), 2 h: 2 h post treatment
Description: Compounds 46 and JK-02A were prepared according to the disclosure of US patent application No. US2008/0176920, and compound JK-02H was prepared according to Example 1. A repeat efficacy study was carried out on the same batch of animals with a single-dose treatment followed by a washing-out period. The 14 days in life studies included two stages: a single low dose treatment assessment on the 7th day and then a single high dose treatment test on the 14th day after CFA injection. On the 7th day after CFA injection, the rats were randomly assigned to respective groups using a computer generated randomization procedure based on the body weight and the baseline values of Von Frey and weight bearing test. Animals received corresponding single dose treatments (vehicle and 3 test articles) on the 7th and 14th days after CFA injection, respectively, and the effect of the test compounds were evaluated. Hyperalgesia of all the study animals was assessed following a single low dose treatment with the test articles on day 7, while a single high dose effect of the test article was evaluated on day 14. The mechanical hyperalgesia and weight bearing were measured on day 7 and day 14 after CFA injection, followed by administration of control or test articles. Von Frey filaments and weight bearing were measured on all the study animals at three time points on day 7, and four time points on day 14. An extra time point assessment was conducted on day 14, considering the strong analgesic effect of the test articles at a higher dose noticed during the test at the 3th time point. Mechanical hyperalgesia of the left hind paw was measured before and during the course of study in all animal groups by determining withdrawal thresholds to Von Frey filament (Bioseb, France). Increasing tensile force perpendicular to the plantar surface of the paw was applied to the filaments. The threshold for paw withdrawal was calculated by taking the average of 2-3 repeated stimuli (unit in “g”). On day 7, Von Frey Filament measurements were conducted three times, at the time points of pretreatment, 15 min and 2 hours post treatment. Following a one-week washing out period, on day 14 after CFA injection, Von Frey Filament tests were performed again four times post a single high dose administration. Rats treated with vehicle or high dose test articles were measured at the time points of pretreatment, 15 min, 2 and 5 hours post treatment. All the results were expressed as mean±SD. One-way analysis of variance (ANOVA) followed by a multiple comparison test were applied among the groups, p<0.05 accepted as significant.

[4] = day 7 after CFA, low dose groups (46 and JK-02A 10 mg/kg, JK-02H 5 mg/kg)
[5] = day 7 after CFA, single low dose i.v. (46 and JK-02A 10 mg/kg, JK-02H 5 mg/kg)
[6] = day 14 after CFA, high dose groups (46 and JK-02A 40 mg/kg, JK-02H 20 mg/kg)
[7] = day 14 after CFA, single high dose i.v. (46 and JK-02A 40 mg/kg, JK-02H 20 mg/kg)
[8] = day 14 after CFA, single high dose i.v. (46 and JK-02A 40 mg/kg, JK-02H 20 mg/kg), 5 h post treatment
[9] = individual animal, high dose i.v. (46 and JK-02A 40 mg/kg, JK-02H 20 mg/kg), hydrochloride
[10] = individual animal, low dose i.v. (46 and JK-02A 10 mg/kg, JK-02H 5 mg/kg), hydrochloride
[11] = individual animal, high dose i.v. (46 and JK-02A 40 mg/kg, JK-02H 20 mg/kg), two repeated stimuli, hydrochloride
[12] = individual animal, low dose i.v. (46 and JK-02A 10 mg/kg, JK-02H 5 mg/kg), two repeated stimuli, hydrochloride

Volume of added water ([1]; about 0.1 g sample, room temperature, water added until dissolved): 13.5 mL
water solubility, times higher than that of compound 46 ([1]; relative to compound 46 (parent compound)): about 5 times
solubility ([1]; water, thermodynamic from solid): 7400 µg/mL
Compound: Cl.O=C(N[C@@H]1CNC[C@H]1NC(=O)c1ccc2cn[nH]c2c1)c1ccc(C(=O)c2c(OCCOCCO)ccc(F)c2F)cc1 [JK-02H, (3R,4R)-3-{4-[2,3-difluoro-6-(5-hydroxy-3-oxapentan-1-oxy)]benzoyl}benzamido-4-(1H-indazole-6-carboxamido)pyrrolidine hydrochloride]
Weight Bearing Test Values (Mean ± SD), Baseline [2, 4]: 48.83 ± 9.15 g
Weight Bearing Test Values (Mean ± SD), 15 min [2, 5]: 25.30 ± 7.97 g
Weight Bearing Test Values (Mean ± SD), 2 h [2, 5]: 37.43 ± 9.77 g
Weight Bearing Test Values (Mean ± SD), Baseline [2, 6]: 46.68 ± 4.82 g
Weight Bearing Test Values (Mean ± SD), 15 min [2, 7]: 28.55 ± 10.91 g
Weight Bearing Test Values (Mean ± SD), 2 h [2, 7]: 30.48 ± 7.88 g
Weight Bearing Test Values (Mean ± SD), 5 h [2, 8]: 37.58 ± 6.58 g
Weight Bearing Values of Individual Animal, Day 14, 15 min, Left [2, 9]: 59.4 g and 69.4 g and 72.7 g and 72.8 g and 23.1 g and 55.7 g and 42.0 g and 55.0 g
Weight Bearing Values of Individual Animal, Day 14, 15 min, Right [2, 9]: 82.5 g and 90.8 g and 92.9 g and 99.1 g and 77.6 g and 82.3 g and 70.4 g and 82.9 g
Weight Bearing Values of Individual Animal, Day 14, 15 min, Δ [2, 9]: 23.1 g and 21.4 g and 20.2 g and 26.3 g and 54.5 g and 26.6 g and 28.4 g and 27.9 g
Weight Bearing Values of Individual Animal, Day 14, 2 h, Left [2, 9]: 75.2 g and 69.4 g and 47.2 g and 71.7 g (2×) and 76.8 g and 55.9 g and 47.9 g
Weight Bearing Values of Individual Animal, Day 14, 2 h, Right [2, 9]: 95.7 g and 104.8 g and 90.0 g and 96.8 g and 99.9 g and 93.7 g and 80.6 g and 98.1 g
Weight Bearing Values of Individual Animal, Day 14, 2 h, Δ [2, 9]: 20.5 g and 35.4 g and 42.8 g and 25.1 g and 23.1 g and 37.8 g and 32.7 g and 26.4 g
Weight Bearing Values of Individual Animal, Day 14, 5 h, Left [2, 9]: 63.5 g and 62.4 g and 66.3 g and 54.9 g and 63.8 g and 57.7 g and 47.6 g and 44.0 g
Weight Bearing Values of Individual Animal, Day 14, 5 h, Right [2, 9]: 94.2 g and 111.2 g and 105.6 g and 95.6 g and 95.1 g and 88.7 g and 83.3 g and 87.1 g
Weight Bearing Values of Individual Animal, Day 14, 5 h, Δ [2, 9]: 30.7 g and 48.8 g and 39.3 g and 40.7 g and 31.3 g and 31.0 g and 35.7 g and 43.1 g
Weight Bearing Values of Individual Animal, Day 7, 15 min, Left [2, 10]: 54.2 g and 73.4 g and 30.9 g and 63.3 g and 46.3 g and 67.8 g and 45.1 g and 60.6 g
Weight Bearing Values of Individual Animal, Day 7, 15 min, Right [2, 10]: 77.2 g and 99.2 g and 71.7 g and 77.8 g and 72.4 g and 85.5 g and 75.2 g and 85.0 g
Weight Bearing Values of Individual Animal, Day 7, 15 min, Δ [2, 10]: 23.0 g and 25.8 g and 40.8 g and 14.5 g and 26.1 g and 17.7 g and 30.1 g and 24.4 g
Weight Bearing Values of Individual Animal, Day 7, 2 h, Left [2, 10]: 42.3 g and 29.7 g and 57.5 g and 72.9 g and 23.1 g and 37.3 g and 43.5 g and 51.9 g
Weight Bearing Values of Individual Animal, Day 7, 2 h, Right [2, 10]: 66.8 g and 74.0 g and 106.2 g and 97.7 g and 71.6 g and 77.0 g and 81.2 g and 83.1 g
Weight Bearing Values of Individual Animal, Day 7, 2 h, Δ [2, 10]: 24.5 g and 44.3 g and 48.7 g and 24.8 g and 48.5 g and 39.7 g and 37.7 g and 31.2 g
First Baseline, Balance Left, individual animal ([2]; individual animal, pretreatment day 7, left (CFA-injected) hind paw, hydrochloride): 62.6 g and 45.6 g and 51.0 g and 60.6 g and 48.8 g and 56.5 g and 38.6 g and 64.0 g
First Baseline, Balance Right, individual animal ([2]; individual animal, pretreatment day 7, right hind paw, hydrochloride): 96.2 g (2×) and 101.1 g and 115.5 g and 89.7 g and 121.0 g and 87.7 g and 110.9 g
First Baseline, Balance Δ, individual animal ([2]; individual animal, pretreatment day 7, right minus left, hydrochloride): 33.6 g and 50.6 g and 50.1 g and 54.9 g and 40.9 g and 64.5 g and 49.1 g and 46.9 g
Second Baseline, Balance Left, individual animal ([2]; individual animal, pretreatment day 14, left (CFA-injected) hind paw, hydrochloride): 43.2 g and 65.0 g and 68.9 g and 61.3 g and 47.2 g and 60.6 g and 50.2 g and 51.8 g
Second Baseline, Balance Right, individual animal ([2]; individual animal, pretreatment day 14, right hind paw, hydrochloride): 86.1 g and 110.8 g and 113.2 g and 115.1 g and 93.6 g and 102.8 g and 93.7 g and 106.3 g
Second Baseline, Balance Δ, individual animal ([2]; individual animal, pretreatment day 14, right minus left, hydrochloride): 42.9 g and 45.8 g and 44.3 g and 53.8 g and 46.4 g and 42.2 g and 43.5 g and 54.5 g
Von Frey Filament Test Values (Mean ± SD), Baseline [3, 4]: 6.76 ± 0.73 g
Von Frey Filament Test Values (Mean ± SD), 15 min [3, 5]: 9.85 ± 2.15 g
Von Frey Filament Test Values (Mean ± SD), 2 h [3, 5]: 8.69 ± 1.57 g
Von Frey Filament Test Values (Mean ± SD), Baseline [3, 6]: 6.81 ± 0.70 g
Von Frey Filament Test Values (Mean ± SD), 15 min [3, 7]: 10.87 ± 1.00 g
Von Frey Filament Test Values (Mean ± SD), 2 h [3, 7]: 10.57 ± 1.76 g
Von Frey Filament Test Values (Mean ± SD), 5 h [3, 8]: 9.68 ± 1.63 g
Von Frey Values of Individual Animal, Day 14, 15 min [3, 11]: 11.6 g and 11.4 g (2×) and 9.4 g (2×) and 10.9 g and 9.7 g and 10.3 g and 10.1 g and 11.1 g and 10.8 g and 10.4 g and 12.0 g and 13.7 g and 11.7 g and 10.0 g
Von Frey Values of Individual Animal, Day 14, 2 h [3, 11]: 7.1 g and 8.9 g and 11.3 g and 10.8 g (2×) and 9.2 g and 7.2 g and 12.0 g and 9.8 g and 10.5 g and 10.3 g and 11.4 g and 11.0 g and 12.3 g and 13.0 g and 13.5 g
Von Frey Values of Individual Animal, Day 14, 5 h [3, 11]: 7.3 g and 8.9 g and 8.7 g (2×) and 9.5 g and 7.1 g and 7.4 g and 8.5 g and 11.0 g and 9.8 g and 11.3 g and 9.9 g and 11.2 g and 12.6 g and 12.1 g and 10.9 g
Von Frey Values of Individual Animal, Day 7, 15 min [3, 12]: 6.5 g and 5.5 g and 11.9 g and 13.8 g and 8.6 g and 8.5 g (2×) and 10.5 g (2×) and 11.3 g (2×) and 8.7 g and 9.3 g and 9.7 g and 11.4 g and 11.7 g
Von Frey Values of Individual Animal, Day 7, 2 h [3, 12]: 7.0 g and 6.2 g and 11.4 g and 11.2 g and 8.7 g (2×) and 9.0 g and 7.5 g (3×) and 6.5 g and 8.5 g and 10.8 g (2×) and 8.4 g and 9.4 g
First Baseline, Von Frey, individual animal ([3]; individual animal, pretreatment day 7, two repeated stimuli per animal, hydrochloride): 4.9 g and 5.8 g (3×) and 6.7 g and 7.7 g and 6.1 g and 7.0 g and 7.1 g and 6.4 g and 7.4 g (2×) and 7.3 g (2×) and 8.0 g and 7.5 g
Second Baseline, Von Frey, individual animal ([3]; individual animal, pretreatment day 14 after washing-out, two repeated stimuli per animal, hydrochloride): 5.2 g and 5.4 g and 8.4 g and 6.7 g and 6.6 g (2×) and 6.4 g and 7.3 g (2×) and 7.1 g and 6.8 g and 7.6 g and 7.4 g and 6.9 g and 6.2 g and 7.0 g
